Data: patent publication US20240140947A1, “COMPOUND FOR THE TREATMENT OF CANCER” (priority 2022, published 2024)
Like-named read-outs stand apart in the source and are kept apart here.

Assays:
OVCAR3 = experiment: Cell proliferation assay (CYQUANT, 7 days), OVCAR3; type: cell-based; details: Homo sapiens, OVCAR-3, 168 h, read-out: IC50 ± SEM, proliferation inhibition
Protocol: (§1) Cellular CDK activity of Compound 1 and PF-06873600 were assessed in human CCNE1-amplified ovarian cancer cell line model OVCAR3 and human ER+ breast cancer cell line model MCF7 cells. […] OVCAR3 cells were treated overnight with 1 mM hydroxyurea to enrich for G1/S phase cells prior to treatment with inhibitors. Functional effects were measured in a 7-day anti-proliferation assay in one human ovarian cancer (OVCAR3), two human ER+ breast cancer (MCF7 and T47D) and three human non-small cell lung cancer (NCIH2087, NCIH358 and A549) cell line models.
(§2) OVCAR3, MCF7, T47D, HCC1428, NCIH2087, NCIH358 or A549cells were seeded 1-3000 cells/well in 96-well plates in growth media containing 10% FBS and cultured overnight at 37° C. 5% CO2. The following day, compounds were serially diluted from a 10 mM top dose for an 11-point 3-fold dilution curve in DMSO. […] CYQUANT Direct Cell Proliferation Assay (Molecular Probes, Eugene, OR) was then performed following manufacturer recommendations to determine the relative viable cell numbers on the Perkin Elmer Envision 2104 Multi Label Reader at 508 nm excitation and 527 nm emission wavelengths. IC50 values were calculated by concentration-response curve fitting utilizing a four-parameter analytical method using GraphPad Prism software.

MCF7 parental = experiment: Cell proliferation assay (CYQUANT, 7 days), MCF7 parental; type: cell-based; details: Homo sapiens, read-out: IC50 ± SEM, proliferation inhibition
Protocol: as §1, §2

[1] = Human blood binding (fub = fup/BPR); type: in vitro ADME; details: fup divided by BPR
Protocol: Compound 1 has been evaluated according to methods well known in the art, for its ability to partition between human plasma and blood. Based on the observed partitioning and plasma protein binding, the blood binding was estimated based on human blood unbound fraction (fub)=human plasma unbound fraction (fup)/human blood-to-plasma partition ratio (BPR). Human blood unbound fraction (fub) was calculated by dividing fup by BPR.

NCIH2087 = experiment: Cell proliferation assay (CYQUANT, 7 days), NCIH2087; type: cell-based; details: Homo sapiens, NCI-H2087, 168 h, read-out: IC50 ± SEM, proliferation inhibition
Protocol: as §1, §2

[2] = Mouse early toxicology screening (ETS) study; type: in vivo; details: for bone marrow histology: day 14, Compound 1 75 mg/kg BID, PF-06873600 150 mg/kg BID, compared with vehicle
Protocol: Three groups of ten-week-old male CD1 mice were separately evaluated in early toxicology screening studies. Group 1 (n=5/group) were administered an oral dose of 25, 50 and 75 mg/kg BID of Compound 1 for 14 days. Group 2 (n=5/group) were administered an oral dose of 25, 75 and 150 mg/kg BID of PF-06873600 for 14 days. A vehicle control Group 3 (n=5/group) were also included where vehicle was administered BID for 14 days. Study evaluations included clinical observations, body weights, clinical pathology, toxicokinetics, gross pathology and microscopic pathology.
At the end of the ETS study on day 14, mice were sacrificed and images of the mouse bone marrow from each study group (n=5) were obtained.
The systemic exposure of Compound 1 and PF-06873600 were also compared. Exposures from mouse toxicity studies were determined using plasma samples collected as timepoints on day 8 or 14 of the study and were processed using protein precipitation with solvent mixture acetonitrile:methanol (1:1) containing internal standard verapamil followed by quantitation by LC-MS/MS against a standard curve prepared in blank plasma. The free plasma concentrations were calculated using the mouse plasma protein binding for compound 1 (fup=0.182) and PF-06873600 (fup=0.277). (FIG. 3)

[3] = Human plasma protein binding (equilibrium dialysis); type: in vitro ADME; details: 6-hour incubation, pH 7.4, read-out: fup: human plasma unbound fraction
Protocol: Frozen plasma in K3EDTA was purchased from BiolVT and Dulbecco's phosphate buffered saline (DPBS) and HCl were purchased from Sigma. Human plasma unbound fraction (fu r) was determined by equilibrium dialysis using an HTD 96 device (HTDialysis, LLC, Gales Ferry, CT) assembled with 12-14k MWCO membranes. Plasma was thawed and adjusted to pH 7.4 with 1 N HCl prior to use. Dialysis chambers were loaded with 150 μL plasma and 150 μL PBS in the donor and receiver chambers, respectively. The dialysis plate was sealed with a gas-permeable membrane and stored in a 37° C. water-jacked incubator maintained at 75% relative humidity and 5% CO2, on a 100 rpm plate shaker. After a 6-hour incubation, samples were matrix-matched and quench by protein precipitation, followed by LC-MS analysis. A set of satellite samples was included to measure stability after a 6-hour incubation. Incubations were conducted with 4 to 12 replicates. The fup was calculated by dividing the analyte-to-internal standard peak area ratio or analyte concentration in the buffer sample by the signal in the donor sample, corrected for any dilution factors.

[4] = system: phosphorylation of Rb protein at serines 807/811 in MCF7 cells; experiment: Phospho-Serine 807/811 Rb ELISA in MCF7 cells; type: cell-based; details: Homo sapiens, read-out: IC50 ± SEM, modulation of pRB Serine 807/811
Protocol: as §1
OVCAR3 or MCF7 cells were seeded at 25,000 cells/well in 100 μL growth media and allowed to adhere at 37° C. with 5% CO2 overnight. OVCAR3 cells were treated overnight with 1 mM hydroxyurea to enrich for G1/S phase cells prior to treatment with inhibitors. The following day, compounds were serially diluted from a 10 mM top dose for an 11-point 3-fold dilution curve in DMSO. Compound 1 and PF-06873600 were intermediately diluted 1:200 into growth media prior to diluting 1:5 on cells for final concentration 10 μM to 0.1 nM in 0.1% DMSO on cells. […] Plates were read in luminescence mode and IC50 values calculated.
The cellular activity of Compound 1 was evaluated in ER+, HER2− MCF7 cells and CCNE1-amplified ovarian carcinoma. Activity was determined by inhibition of phosphorylation of […]

SMILES	IC50 (OVCAR3; OVCAR3, 7 days, mean) [nM]	IC50 (MCF7 parental; 168 h, MCF7 parental, 7 days, mean) [nM]	fraction unbound [1]	IC50 (NCIH2087; NCIH2087, 7 days, mean) [nM]	bone marrow histology [2]	neutropenia ([2]; male CD1 mice, oral 25, 50 and 75 mg/kg BID for 14 days)	fraction unbound at 6 h [3]	IC50 ([4]; MCF7, mean, treated 24 h (overnight)) [nM]	IC50 (OVCAR3) [nM]	IC50 (MCF7 parental; MCF7, 168 h) [nM]	IC50 (NCIH2087) [nM]	IC50 ([4]; MCF7, 24 h) [nM]
C[C@@]1(O)CCC[C@H]1n1c(=O)c(CC(F)F)cc2cnc(NC3CCN(S(N)(=O)=O)CC3)nc21 [Compound 1, 4-({6-(2,2-difluoroethyl)-8-[(1R,2R)-2-hydroxy-2-methylcyclopentyl]-7-oxo-7,8-dihydropyrido[2,3-d]pyrimidin-2-yl}amino)piperidine-1-sulfonamide]	11.4	16.8 ± 6.7	0.0022	40 ± 6.8	lack of impact on the mouse bone marrow	no neutropenia was observed	0.174	148	–	–	–	–
C[C@@]1(O)CCC[C@H]1n1c(=O)c(C(F)F)cc2cnc(NC3CCN(S(C)(=O)=O)CC3)nc21 [Compound 2, reference compound]	–	–	0.32	–	vacuoles and large spaces between cells in the bone marrow image indicating cell death/apoptosis	–	0.288	–	70 ± 11.7	38.6 ± 10.2	79.8	70.6
